Data on 1 substance can be found in patent US20230413812A1, “SANITIZING COMPOSITIONS CONTAINING IONIC LIQUID” (CAGE BIO, INC., priority 2020, published 2023).

Some results are limits rather than exact numbers.

Common to all, as to format: cell-based
Experiment [1] deals with Escherichia coli (E. coli). Nature of the experiment: Residual self-sanitizing activity on hard, non-porous glass surface per EPA Protocol 01-1A (manual wear cycles). Particulars: in CGB-D-100 disinfectant; lowest concentration tested. The text has this:
The purpose of this study is to test residual self-sanitizing activity of CGB-D-100 disinfectant per EPA protocol 01-1A, “Residual Self-Sanitizing Activity of Dried Chemical Residues on Hard, Non-Porous Surfaces.”
The scope of this study is to evaluate residual self-sanitizing activity of CGB-D-100 disinfectant with three different concentrations of CG-101, and to compare it to a marketed disinfectant (Microban® 24). Glass surface (microscope slides) will be used as a non-porous surface. Sterile saline solution will be used as a negative control and Microban® 24 will be used as the positive control. The method will simulate contact and touches by incorporating wear or wiping of the test surface as well as reinoculations of the test and control surfaces over 24 hours. The EPA protocol requires the use of an automated abrasion tester to simulate wear from wiping the surface. For the purposes of this protocol, abrasion or wear were be performed manually using cotton wipes.
First, the glass slides will be washed with a non-medical soap and water followed by cleaning with 70% alcohol and allowed to air dry. […]
Test product, negative control, and positive control will be applied to replicate test surfaces according to the product's Directions for Use or until surface is completely wet. […] The temperature and humidity in the lab will be recorded. […]

Experiment [2] in a line: Antimicrobial efficacy time kill test (ASTM E2783-11, neutralization per E1054-08). The method, then:
The purpose of this study was to test antimicrobial efficacy of 1%, 3%, and 5% CG-101 disinfectant formulations.
The study was performed using the following standard protocols: • I. American Society for Testing and Materials. Standard Test Methods for Evaluation of
Inactivators of Antimicrobial Agents; Designation: E1054-08 (Reapproved 2013). West Conshohocken, PA. • II. American Society for Testing and Materials. Standard Test Method for Assessment of Antimicrobial Activity for Water Miscible Compounds Using a Time-Kill Procedure. Designation: E2783-11 (Reapproved 2016). West Conshohocken, PA.
Initial neutralization testing confirmed that the test material was adequately neutralized at all concentrations tested. The time kill procedure included triplicate testing and all plate counts were performed in duplicate
CG-101 was added to water to form mixtures of 1 wt %, 3 wt %, and 5 wt % of CG-101.

The subject of experiment [3] is E. coli. As to the kind of experiment: Self-sanitizing activity of CG-101 in water and aqueous Poloxamer 407 on a surface with dried inoculum, 5 min contact. The method, then:
This study was conducted to test the residual self-sanitizing activity of samples containing 5% CG-101 in water, in 5% aqueous […], and in 10% aqueous Poloxamer 407. Parameters of the experiments are listed below:
• Water (Negative Control) • 5% CG-101 Aqueous Solution (Positive Control) • 5% CG-101 in 5% Poloxamer 407 Aqueous Solution • 5% CG-101 in 10% Poloxamer 407 Aqueous solution
• 10 μl of E. coli suspension was applied on the surface and dried over 30 min • 1 ml of each test sample and control was applied on the surface with a dry inoculum • Contact time of 5 min was used • Neutralization was performed immediately after the contact time • 100 μl from each solution was plated onto agar plates and transferred to incubator set at 37 C for 48 hr. • Bacterial growth was observed after 48 hr. In the incubator.

Setting [4] is: 1 wt % CG-101 in water, 1 minute.
Setting [5] is: 1 wt % CG-101 in water, 5 minutes.
Setting [6] is: 1 wt % CG-101 in water, at seconds.
The mark [7] stands for this setting: 3 wt % CG-101 in water, 1 minute.
The mark [8] stands for this setting: 3 wt % CG-101 in water, 5 minutes.
Setting [9] is: 3 wt % CG-101 in water, at seconds.
[10] abbreviates: 5 wt % CG-101 in water, 1 minute.
Setting [11] is: 5 wt % CG-101 in water, 5 minutes.
[12] abbreviates: 5 wt % CG-101 in water, at seconds.

Choline geranate [CG-101]: the “concentration of CG-101 sufficient to kill all applied bacteria and to preserve the glass surface for 24 h” value in experiment [1] turned out to be 2%. The killing in experiment [2] (setting [4]), in experiment [2] (setting [5]), in experiment [2] (setting [6]), in experiment [2] (setting [7]), in experiment [2] (setting [8]) and in experiment [2] (setting [9]) was 99.9% each time. Further, the killing in experiment [2] (setting [10]), in experiment [2] (setting [11]) and in experiment [2] (setting [12]) was 99.9% in each case. Besides, the “log decrease in CFU” value in experiment [2] (setting [4]), in experiment [2] (setting [5]), in experiment [2] (setting [6]), in experiment [2] (setting [7]), in experiment [2] (setting [8]) and in experiment [2] (setting [9]) was greater than 3 log each time. The “log decrease in CFU” value in experiment [2] (setting [10]), in experiment [2] (setting [11]) and in experiment [2] (setting [12]) was greater than 3 log each time. In addition, the “bacterial growth on TSA plates” value was “No bacterial growth” in experiment [3] (5% CG-101 in 5% aqueous Poloxamer 407, 48 hr incubation); “No bacterial growth” in experiment [3] (5% CG-101 in 10% aqueous Poloxamer 407, 48 hr incubation); “No bacterial growth” in experiment [3] (5% CG-101 in water (positive control of this study), 48 hr incubation).
